{
  "source": "patent US6545148B2",
  "about": "“Process for preparing certain substituted caprolactams” (Novartis AG, priority 2001, dated 2003)",
  "test": "H2O solubility of the chromatographed white solid",
  "format": "physicochemical",
  "details": "white solid after chromatography (2% methanol-CH2Cl2), before preparative hplc purification",
  "method": "To a stirred solution of trifluoroacetic acid (10 ml), tetrahydrofuran (10 ml) and water (5 ml) at 0° C. is added, in one portion, 3.8 g (7.1 mmol) of the compound prepared in a) above. The reaction is stirred at 0° C. for 30 minutes, concentrated via rotary evaporation (bath temperature <20° C), mixed with saturated NH4HCO3 (5 mL) and stirred for 15 minutes. […] This material is further purified using preparative hplc (reverse phase eluted with 90% CH3CN-water) to give 2.9 g (82.4%) of the title compound as a white solid, m.p. 79-80° C.",
  "data": [
    {"smiles": "CO[C@@H](C(=O)N[C@H]1CC[C@@H](OC(=O)C2CCCCC2)CNC1=O)[C@H](O)[C@@H](O)[C@H](O)/C=C/C(C)(C)C", "note": "[Example 3, (2R, 3R, 4S, 5R, 6E)-3,4,5-trihydroxy-2-methoxy-8,8-dimethyl-N-[(3S,6R) -hexahydro-2-oxo-6-(cyclohexylcorbonyl)oxy-2H-azepin-3-3-yl]non-6-enamide]", "values": [
      {"measurement": "H2O solubility", "value": 3700, "unit": "µg/mL"}
    ]}
  ]
}
